Converted amounts (≈) assume the structure as drawn.
Assays:
Assay in all cases: ≥ marks a high value that may be exact or a test limit, other limits are often not marked, values filed in µg/mL are converted to µM
[1] = system: Escherichia coli PCM 2057
[2] = system: Staphylococcus aureus PCM 1944
[3] = system: Bacillus subtilis ATCC 6633
Candida albicans = system: Candida albicans
[4] = system: Escherichia coli NIHJ JC-2
[5] = system: Staphylococcus aureus FDA 209P JC-1

MIC [1] | MIC [2] | MIC [3] | MIC (Candida albicans) | MIC [4] | MIC [5] | Compound
≥ 753 µM | ≥ 753 µM |  |  |  |  | CC[C@H](C)[C@H](NC(=O)[C@H](CC(N)=O)NC(=O)[C@@H](NC(=O)[C@H](C)N)C(C)C)C(=O)N1CCC[C@H]1C(=O)N[C@@H](Cc1ccccc1)C(=O)N[C@@H](CCCCN)C(=O)N[C@H](C(=O)N[C@@H](Cc1cnc[nH]1)C(=O)N[C@@H](Cc1ccccc1)C(=O)N[C@@H](CCCN=C(N)N)C(=O)O)C(C)C [AVNIPFKVHFR]
 |  | 0.79 µM (≈ 2 µg/mL) | > 51.4 µM | 13.4 µM (≈ 34 µg/mL) | 3.16 µM (≈ 7.99 µg/mL) | CC[C@H](C)[C@H](NC(=O)CNC(=O)[C@H](C)NC(=O)[C@H](CC(C)C)NC(=O)[C@@H](NC(=O)[C@@H]1CCCN1C(=O)[C@H](CC(C)C)NC(=O)[C@@H](N)Cc1ccccc1)C(C)C)C(=O)N[C@@H](C)C(=O)N[C@@H](C)C(=O)N[C@@H](CCCCN)C(=O)N[C@H](C(=O)N[C@H](C(=O)N1CCC[C@H]1C(=O)N[C@@H](C)C(=O)N[C@@H](CC(C)C)C(=O)N[C@@H](Cc1ccccc1)C(=O)N[C@H]1CSSC[C@@H](C(=O)O)NC(=O)[C@H](CCCCN)NC(=O)[C@H](CCCCN)NC(=O)[C@H]([C@@H](C)O)NC(=O)[C@H]([C@@H](C)CC)NC(=O)[C@H](CCCCN)NC1=O)C(C)C)C(C)C [FLPVLAGIAAKVVPALFCKITKKC]

— DBAASP
